Reference: patent publication US8835462B2, “Macrocyclic picolinamides as fungicides” (Dow AgroSciences LLC, priority 2012, dated 2014)
Where two headings read alike, the source gives them in different places.

How the values were obtained:
Type in all cases: in vivo
[1] = test system: Mycosphaerella graminicola; Anamorph: Septoria tritici; assay: Leaf blotch of wheat (SEPTTR) fungicidal activity on wheat seedlings; settings: Zymoseptoria tritici
Outline: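 Compounds in acetone were diluted with nine volumes of water containing 110 ppm Triton X-100 and sprayed to run-off on Yuma wheat seedlings at first-leaf stage. Septoria tritici spores were inoculated before or after treatment, followed by dew chambers at 100% RH and 20 °C, then greenhouse at 20 °C. Severity (0–100%) was scored once untreated plants were fully diseased; control was calculated relative to untreated plants.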

[2] = test system: Blumeria graminis f. sp. tritici; assay: Wheat powdery mildew (ERYSGT) fungicidal activity; settings: 24 h, 1 Day Protectant, read-out: Disease Control ERYSGT 1DP
Description: Technical grades of materials were dissolved in acetone, which were then mixed with nine volumes of water containing 110 ppm Triton X-100. The fungicide solutions were applied onto wheat seedlings using an automated booth sprayer to run-off. All sprayed plants were allowed to air dry prior to further handling. Wheat plants (variety Yuma) were grown from seed in a greenhouse in 50% mineral soil/50% soil-less Metro mix until the first leaf was fully emerged, with 7-10 seedlings per pot. These plants were inoculated with an aqueous spore suspension of Septoria tritici either prior to or after fungicide treatments. After inoculation the plants were kept in 100% relative humidity (one day in a dark dew chamber followed by two to three days in a lighted dew chamber at 20° C.) to permit spores to germinate and infect the leaf. The plants were then transferred to a greenhouse set at 20° C. for disease to develop. When disease symptoms were fully expressed on the 1st leaves of untreated plants, infection levels were assessed on a scale of 0 to 100 percent disease severity. Percent disease control was calculated using the ratio of disease severity on treated plants relative to untreated plants. Evaluation of Fungicidal Activity: Wheat Powdery Mildew (Blumeria Graminis f. sp. Tritici; Synonym: Erysiphe graminis f. sp. Tritici; Bayer Code […]) Wheat plants (variety Yuma) were grown from seed in a greenhouse in 50% mineral soil/50% soil-less Metro mix until the first leaf was fully emerged, with 7-10 seedlings per pot. These plants were inoculated by dusting with infected stock plants 24 hr after fungicide treatments. After inoculation the plants were kept in a greenhouse set at 20° C. for disease to develop. Fungicide formulation, application and disease assessment on the sprayed leaves followed the procedures as described in the Example A.

Alternaria solani = assay: Tomato early blight (ALTESO) fungicidal activity; settings: 24 h, 1 Day Protectant, read-out: Disease Control ALTESO 1DP
Description: Technical grades of materials were dissolved in acetone, which were then mixed with nine volumes of water containing 110 ppm Triton X-100. The fungicide solutions were applied onto wheat seedlings using an automated booth sprayer to run-off. All sprayed plants were allowed to air dry prior to further handling. Wheat plants (variety Yuma) were grown from seed in a greenhouse in 50% mineral soil/50% soil-less Metro mix until the first leaf was fully emerged, with 7-10 seedlings per pot. These plants were inoculated with an aqueous spore suspension of Septoria tritici either prior to or after fungicide treatments. After inoculation the plants were kept in 100% relative humidity (one day in a dark dew chamber followed by two to three days in a lighted dew chamber at 20° C.) to permit spores to germinate and infect the leaf. The plants were then transferred to a greenhouse set at 20° C. for disease to develop. When disease symptoms were fully expressed on the 1st leaves of untreated plants, infection levels were assessed on a scale of 0 to 100 percent disease severity. Percent disease control was calculated using the ratio of disease severity on treated plants relative to untreated plants. Evaluation of Fungicidal Activity: Tomato Early Blight (Alternaria Solani; Bayer Code […]) Tomato plants (variety Outdoor girl) were propagated in soil-less Metro mix, with each pot having one plant, and used when 12 to 14 days old. Test plants were inoculated with an aqueous spore suspension of Alternaria solani 24 hr after fungicide treatments. After inoculation the plants were kept in 100% relative humidity (one day in a dark dew chamber followed by two to three days in a lighted dew chamber at 20° C.) to permit spores to germinate and infect the leaf. The plants were then transferred to a growth room at 22° C. for disease to develop. Fungicide formulation, application and disease assessment on the sprayed leaves followed the procedures as described in the Example A.

Puccinia triticina = assay: Fungicide mobility (dropline mobility test), wheat brown rust (PUCCRT); settings: 1 ug/leaf, disease-free zone as percent of distance from marked line to leaf tip; for Dropline Mobility Test PUCCRT 1 DPM: 1 Day Protectant Mobility; for Dropline Mobility Test PUCCRT 3 DCM: 3 Day Curative Mobility
Outline: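 Yuma wheat primary leaves, held horizontal, got a 2 μl drop of EC-formulated compound in water with 110 ppm Triton X-100 on a line 5 cm from the tip; 6 replicates. Inoculation 1 day after or 3 days before application. Acropetal disease-free zone measured as percent of line-to-tip distance once control rust fully expressed.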

[3] = 24 h, 1 Day Protectant, read-out: Disease Control SEPTTR 1 DP
[4] = 72 h, 3 Day Curative, read-out: Disease Control SEPTTR 3 DC

Compound | pest or weed control at 100 ppm [1, 3] | pest or weed control at 100 ppm [1, 4] | pest or weed control at 100 ppm [2] | pest or weed control at 100 ppm (Alternaria solani) | Dropline Mobility Test PUCCRT 1 DPM (Puccinia triticina) | Dropline Mobility Test PUCCRT 3 DCM (Puccinia triticina)
CCCCCO[C@@H]1[C@@H](Cc2ccccc2)COC[C@H](NC(=O)c2nccc(OC)c2OCOC(C)=O)C(=O)O[C@H]1C [Compound 26] | 80 to 100% | 80 to 100% | 0 to 80% | 80 to 100% | B (More than 0-Less than 80) | B (More than 0-Less than 80)
COc1ccnc(C(=O)N[C@H]2COC[C@H](Cc3ccccc3)[C@@H](OCCCc3ccccc3)[C@H](C)OC2=O)c1OCOC(C)=O [Compound 34] | 80 to 100% | 80 to 100% | 0 to 80% | 80 to 100% | B (More than 0-Less than 80) | –
COC(=O)/C=C/O[C@@H]1[C@@H](Cc2ccccc2)COC[C@H](NC(=O)c2nccc(OC)c2OCOC(C)=O)C(=O)O[C@H]1C [Compound 36] | 80 to 100% | 80 to 100% | 0 to 80% | 0 to 80% | B (More than 0-Less than 80) | B (More than 0-Less than 80)
COc1ccnc(C(=O)N[C@H]2COC[C@H](Cc3ccccc3)[C@@H](OC(=O)c3ccccc3)[C@H](C)OC2=O)c1OCOC(C)=O [Compound 37] | 80 to 100% | 80 to 100% | 0 to 80% | 80 to 100% | B (More than 0-Less than 80) | –
COc1ccnc(C(=O)N[C@H]2COC[C@H](Cc3ccccc3)[C@@H](OC(=O)C3CC3)[C@H](C)OC2=O)c1OCOC(C)=O [Compound 38] | 80 to 100% | 80 to 100% | 0 to 80% | 80 to 100% | B (More than 0-Less than 80) | B (More than 0-Less than 80)
COc1ccnc(C(=O)N[C@H]2COC[C@H](Cc3ccccc3)[C@@H](OC)[C@H](C)OC2=O)c1OCOC(C)=O [Compound 39] | 80 to 100% | 80 to 100% | 0 to 80% | 0 to 80% | A (80-100) | A (80-100)
COc1ccnc(C(=O)N[C@H]2COC[C@H](Cc3ccccc3)[C@@H](Oc3ccccc3)[C@H](C)OC2=O)c1OCOC(C)=O [Compound 40] | 80 to 100% | 80 to 100% | 0 to 80% | 80 to 100% | B (More than 0-Less than 80) | B (More than 0-Less than 80)
